Measurements published in paper PMC4549712, “Inhibition of human GLUT1 and GLUT5 by plant carbohydrate products; insights into transport specificity” (Scientific Reports, 2015).
Residue numbers refer to the chain shown, from its start. “And” between values parts separate entries of the source, which are not always exact repeats. Equal values may be shown once. “Also recorded” adds a separate entry of the source.

Experiments:
human GLUT1 = biological target: T1, human GLUT1 (Homo sapiens, UniProt P11166); assay: entrance counter-flow transport assay, GLUT1-mediated glucose transport in proteoliposomes; type: biochemical
T1 construct: Full length DNA was subcloned into pFastBac1 (Life Technologies) vector with a N-terminal hexahistidine tag; hexahistidine (thrombin-cleavable) (N, cleaved yes); made in house; host or cells: Sf21 insect cells (baculovirus, pFastBac1)
T1 sequence (P11166 1-492): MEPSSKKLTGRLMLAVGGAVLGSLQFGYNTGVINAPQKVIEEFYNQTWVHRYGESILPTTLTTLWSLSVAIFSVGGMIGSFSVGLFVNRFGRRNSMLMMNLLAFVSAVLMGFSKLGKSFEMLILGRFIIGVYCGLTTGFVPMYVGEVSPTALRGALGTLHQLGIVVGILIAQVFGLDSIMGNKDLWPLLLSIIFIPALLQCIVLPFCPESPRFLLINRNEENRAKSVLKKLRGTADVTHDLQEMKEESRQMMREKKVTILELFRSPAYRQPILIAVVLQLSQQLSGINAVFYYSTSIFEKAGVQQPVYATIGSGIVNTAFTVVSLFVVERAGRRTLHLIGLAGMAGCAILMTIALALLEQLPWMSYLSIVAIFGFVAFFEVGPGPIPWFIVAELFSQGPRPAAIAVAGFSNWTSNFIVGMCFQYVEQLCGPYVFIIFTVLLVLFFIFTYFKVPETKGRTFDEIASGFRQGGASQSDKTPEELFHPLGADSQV
Procedure: Human GLUT1 and GLUT5 were expressed recombinantly in insect cell culture. The purified proteins were reconstituted into proteoliposomes. To measure the inhibition of GLUT1 or GLUT5 transport activity we used entrance counter-flow transport assay. In GLUT1 and GLUT5 proteoliposomes, substrate transport reached steady state after one minute incubation at room temperature.
Proteoliposomes were generated according to the protocol from[30] with minor modifications. Liposomes were produced from a 95/5% (w/w) mix of soy phosphatidylcholine and cholesterol (Avanti Polar Lipids). Briefly, hexane-washed and vacuum-dried lipids were resuspended to 20 mg/ml in 100 mM KPi (pH 7.5), and then subjected to 11 freeze-and-thaw cycles in liquid nitrogen and room temperature water. The lipid mixture was extruded through a 0.1 μm polycarbonate filter. Prepared liposomes were destabilized with 4 mM Triton X-100 and mixed with purified protein in a 100:1 (w/w) ratio in 100 mM KPi (pH 7.5) 20% (v/v) glycerol, 200 mM (glucose or fructose). Detergent was removed by several additions of SM2 BioBeads (BioRad) and incubated overnight at 4 °C. After filtering out the BioBeads, proteoliposomes were diluted with 100 mM KPi (pH 7.5) 200 mM (glucose or fructose), and then collected by ultracentrifugation, at 200,000 × g and 4 °C, for 1 hour. The proteoliposomes pellet was resuspended in the above buffer so that O.D.600nm was ~30.
To measure hexose transport, we utilized entrance counter-flow assay. Transport was performed in a volume of 100 μL of 100 mM KPi (pH 7.5) buffer containing radioactive ^14C-hexose (4 μM fructose or 5 μM glucose) with inhibitors added before initiation of transport. Radioactive substrate uptake in GLUT1 and GLUT5 (wild-type or mutant) proteoliposomes was constant between 1 and 2 mins. The reaction was started by the addition of 3 μL concentrated proteoliposomes to the above solution and incubated at room temperature; the transport was stopped after one minute by addition of ice-chilled quench buffer [100 mM KPi (pH 5.5) and 100 mM LiCl]. The solution was filtered through a 0.4 μm pore size cellulose nitrate membrane filter (Whatman), and the filter was washed three times with quench buffer. The membrane filter was placed into a vial filled with BioSafe II scintillation liquid (Research Products International Corp.), and radioactivity was quantified with LS 6500 scintillation counter (Beckman). […] The transport assays were unaffected by 5% DMSO. Data is presented as relative activity normalized to radioactivity of no inhibitor added as 100% and empty proteoliposomes as 0%. Kinetic parameters were fitted by nonlinear algorithm plots using Prism (GraphPad Software).

GLUT1W388A = biological target: T2, GLUT1W388A (Homo sapiens, UniProt P11166, W388A); assay: entrance counter-flow transport assay, glucose transport by GLUT1W388A proteoliposomes; type: biochemical; conditions: any tested concentration, up to 20 mM
T2 construct: Full length DNA was subcloned into pFastBac1 (Life Technologies) vector with a N-terminal hexahistidine tag; hexahistidine (thrombin-cleavable) (N, cleaved yes); made in house; host or cells: Sf21 insect cells (baculovirus, pFastBac1)
T2 sequence (P11166 1-492 W388A): T1 sequence (P11166 1-492) with W388A
Procedure: We expressed and purified GLUT1W388A and GLUT5A396W. Purified mutant proteins were reconstituted into proteoliposomes and activity was determined by entrance counter-flow transport assay.
cDNAs of GLUT1 and GLUT5 were purchased from Open Biosystems (GE Healthcare). Full length DNA was subcloned into pFastBac1 (Life Technologies) vector with a N-terminal hexahistidine tag. Bacmids were generated in DH10Bac E. coli cells (Life Technologies). Baculoviruses were produced using Cellfectin II Reagent and amplified in Sf21 insect cells (Life Technologies). Cells were maintained at 26 °C, and P1 (10^6 pfu/mL) was collected from infected cells after 72 hours. Sf21 cells were propagated in HyClone SFX-Insect media (GE Healthcare), supplemented with 5% fetal bovine serum (Biowest), antibiotics (100 units/mL Penicillin G and 100 μg/mL streptomycin sulfate) and amphotericin B (2.5 μg/mL). For recombinant protein expression, Sf21 cells in suspension culture at 2 × 10^6 cells/ml were infected with P3 viral stock (10^8 pfu/mL), at an MOI of 1.0 pfu/cell. Four days after viral infection, cells from 2 L culture were collected by centrifugation at 2,000 × g and 25 °C. […]

In the case of `C=C1C[C@@]23CC[C@H]4[C@@](C)(CCC[C@@]4(C)C(=O)O[C@@H]4O[C@H](CO)[C@@H](O)[C@H](O)[C@H]4O)[C@@H]2CC[C@]1(O[C@@H]1O[C@H](CO)[C@@H](O)[C@H](O)[C@H]1O)C3` [Rub, Rubusoside], the “inhibition of GLUT1 glucose transport activity” value (human GLUT1; 20 mM) is reported as “reducing activity to background levels”, the IC50 (human GLUT1; entrance counter-flow) is reported as 4.6 mM and ~5 mM and the “inhibition of glucose transport by GLUT1W388A” value (GLUT1W388A) is reported as “not inhibited; also recorded: did not inhibit”.
